Results from patent publication US8895502B2, “β2-glycoprotein I peptide inhibitors” (Kansas State University Research Foundation, priority 2010, dated 2014).
“Also recorded” adds a separate entry of the source. Ends that are not written are not given here.

Key:
[1] = tested on: CD31; assay: Spontaneous breast cancer model, CD31 RNA expression; format: in vivo, mouse; settings: mammary tumors, compared to saline treated animals
Description: (§1) mRNA was isolated from the tumor samples that were homogenized in Trizol. The concentration of mRNA was evaluated by nanodrop and the purity by bioanalyzer. cDNA was then synthesized using random primers with the Quanta cDNA synthesis kit. RT-PCR was then performed on a 1:100 dilution of cDNA for 18s rRNA. After 3 min denaturing at 95° C., the real-time PCR reaction consisted of 50 cycles (of 10 sec at 95° C., 20 sec at 58° C., and 10 sec at 72° C.), followed by a melt curve increasing at intervals of 0.5° C. from 60° C. to 95° C. RT-PCR was also performed on cDNA samples for CD31 and VEGF which are endothelial markers of angiogenesis. After subtracting 18s Ct values, peptide treated dCt values were normalized to saline treated samples and fold change calculated as ddCt. Primers were obtained from Integrated DNA Technology (Coraville, Iowa) and sequences are in the table below.

[2] = tested on: VEGF; assay: Spontaneous breast cancer model, VEGF RNA expression; format: in vivo, mouse; settings: mammary tumors, compared to saline treated animals
Description: as §1

[3] = tested on: CD31; assay: B16-F10 melanoma model, CD31 expression in tumors; format: in vivo, mouse
Description: as §1, with “kit. Real-time PCR” for “kit. RT-PCR”, “0.5°” for “0.5° C.”, “and endoglin” for “and VEGF”, “angiogenesis. Fold change of each gene was determined by” for “angiogenesis. After”, “18s for normalization of RNA” for “18s Ct values, peptide treated dCt values were normalized to saline treated samples”, “change was determined by comparing to original cells which were set to 1.” for “change calculated as ddCt.”
OCT cryopreserved tumor sections were cut and stained similar to intestinal sections in Example 1. CD31 and Pan-endothelial expression was detected by FITC conjugated rat anti-mouse CD31 or pan-endothelial antibodies (Biolegend, San Diego, Calif.). Each experiment contained serial sections stained with the appropriate isotype control antibodies. All slides were mounted with ProLong Gold (Invitrogen) and images were obtained and analyzed as described in Example 1.

[4] = tested on: endoglin; assay: B16-F10 melanoma model, endoglin expression in tumors; format: in vivo, mouse; settings: peptide treatment on days 1-4, 6, and 8, qRT-PCR
Description: as §1, with “kit. Real-time PCR” for “kit. RT-PCR”, “0.5°” for “0.5° C.”, “and endoglin” for “and VEGF”, “angiogenesis. Fold change of each gene was determined by” for “angiogenesis. After”, “18s for normalization of RNA” for “18s Ct values, peptide treated dCt values were normalized to saline treated samples”, “change was determined by comparing to original cells which were set to 1.” for “change calculated as ddCt.”

[5] = tested on: C57Bl/6 mice; assay: Hemorrhage-induced intestinal damage and inflammation; format: in vivo, mouse; settings: 40 uM peptide after blood loss, 2 hours post-hemorrhage
Description: After a 1-week acclimatization period, mice were anesthetized using […]. Mice undergoing hemorrhage were subjected to retro-orbital removal of 30% of the calculated blood volume (approximately 0.5 mL) over a 90-second period (Fleming, S. D. et al., J. Surg. Res. 150:196-203 (2008); Hylton, D. J. et al., Shock 34:467-474 (2010); Hylton, D. J. et al., Shock 35: 134-140 (2011)). Volume of blood to be removed was based on animal weight and ranged from […] (body weight in grams×0.025). The determined blood volume was measured in water and marked on both the collection tubes and the capillary tubing used for retro-orbital punctures. This ensured that the correct amount would be withdrawn. A single retro-orbital puncture was sufficient for blood collection. The 2 hour mortality rate was less than 1%. Sham mice were subjected to similar procedures with no blood removal. Mice were randomly assigned to receive 40 uM peptide (80 ng/mouse) in a volume of 80-150 μL, or an equal volume of normal saline. To prevent spontaneous complement activation, all studies were performed in the absence of heparin. At 2 hours post-hemorrhage, mice were euthanized and tissues collected for analysis. Intestinal tissues were formalin fixed for analysis of injury and frozen sections were obtained for immunohistochemistry. […]

[6] = tested on: Fvb/N-Tg(MMTV-PyVT)634Mul/J mice mammary tumors; assay: Spontaneous breast cancer model, tumor growth; format: in vivo, mouse; settings: 40 μM retro-orbital 3 times per week for 7 weeks after palpable tumor
Description: Ten […] Fvb/N-Tg(MMTV-PyVT)634Mul/J mice were generously donated by T. A. Nguyen and maintained under 12 h light/dark cycles at Kansas State University, Division of Biology (Manhattan, Kans.). These mice are Her2^+ Estrogen receptor α/β^+, Progesterone receptor^+, p53^+ animal models that spontaneously develop breast cancer. All mice were allowed access to food and water ad libitum and maintained under specific pathogen free conditions. Research was conducted in compliance with the Animal Welfare Act and other federal statutes and regulations relating to animals and experiments involving animals and was approved by the Institutional Animal Care and Use Committee.
Mice were observed 3 times a week until tumors were palpable. Randomly, mice were assigned to receive treatment with N. Saline or peptide 296c-s. Each peptide treated mouse received β2-Glycoprotein 1 Peptide 296c-s (40 μM) by retro-orbital injection three times a week for 7 additional weeks. N. Saline treated mice received the same volume (80 μL) of 0.15M normal saline retro-orbitally three times a week as a control group.
Tumors were measured by hand with calipers three times a week for 7 weeks after the start of injection. After 7 weeks, the mice were briefly anesthetized using isofluorene followed by cervical dislocation euthanization and the tumors were harvested. The tumors were measured volumetrically. […]

[7] = tested on: thioglycollate-elicited macrophages, IL-6; assay: β2-GPI stimulated macrophage IL-6 production; format: cell-based; settings: mouse β2-GPI 10 μg/mL, peptide 40 μM, 18 hours
Description: C57Bl/6 mice were injected i.p. with 1 mL thioglycollate (4%) 4 days prior to peritoneal lavage. Peritoneal exudate macrophages or the B cell line, LK35.2, were seeded at 2×10^6 cells/mL in 24-well or 96-well plates. After macrophage adherence, both cell types were treated with mouse β2-GPI (10 μg/mL) with or without peptide (40 μM). Additional cells were unstimulated as a negative control or stimulated with 10 μg/mL LPS (E. coli 055B5) as a positive control. Supernatants were collected 18-20 hours after stimulation and analyzed for nitrite by Griess reagent (Hoffman & Fleming, Cell Biochem. Funct. 28:686-694 (2010)) or IL-6 by Milliplex MAP kit (Millipore) following the manufacturer's instructions using a Luminex 200 with xPONENT 3.1 and Analyst software (Millipore).

Row | Substance | RNA expression of CD31 [1] | RNA expression of VEGF [2] | protein expression of both endothelial markers ([3]; immunohistochemistry of tumors) | CD31 RNA expression within the tumors ([3]; peptide treatment on days 1-4, 6, and 8, qRT-PCR) | endoglin RNA expression within the tumors [4] | hemorrhage-induced inflammation (PGE2 and IL-6 production) [5] | hemorrhage-induced intestinal damage [5] | percent tumor growth compared to initial measurements [6] | β2-GPI induced IL-6 production [7]
1 | H-IHFYSKNKEKKSSYTVEAHSRDGTI-OH [peptide 296Cys-Ser] | significantly decreased | significantly decreased | decreased | attenuated | attenuated | significantly lower; also recorded: inhibit | significantly lower; also recorded: inhibit | significantly decreased | –
2 | H-KKCSYTVEAHCRDGTIEIPSCFKEHS-OH (cysteine pairing not given here) [peptide 305, 10] | – | – | – | – | – | – | – | – | attenuated
